Patent US10752900B2, “Oligonucleotides for modulating gene expression and uses thereof” (BIOGENERA S.P.A., priority 2012, dated 2020)

What was measured:
Format in all cases: cell-based, human
[1] = tested on: MYCN gene; test: QT-PCR, MYCN mRNA in RH30 cells; conditions: Table 6, PNA
Protocol: For the purpose of assessing the ability of the oligonucleotides of the present invention to modulate the expression of the target genes, their ability to reduce the quantity of messenger RNA was analyzed using the Real-Time PCR technique. For this purpose, use was made of 24-well plates, which were seeded with 5.0×10^4 cells with 0.3 ml of OPTI-MEM (GIBCO BRL) medium, 4% FBS and 2 mM L-glutammine (experiments in triplicate) per well. The cells were incubated for 24 hours at 37° C., in an atmosphere containing 5% CO2 to permit adherence to the base of the wells. Each oligonucleotide analyzed, except for the PNA oligonucleotides, was incubated beforehand with 2 μl of Lipofectamine 2000 (Invitrogen), with 0.3 mL of serum-free OPTI-MEM (GIBCO BRL) medium. For each well, the oligonucleotides were analyzed at the following final concentrations: • the antisense oligonucleotides siRNA and siRNA gapmer (i.e. the oligonucleotides containing one or more monomers of chemically modified nucleic acids at the 3' or 5' end, while in the central portion they have monomers of nucleic acids that have not been modified or have been modified at the level of the phosphodiester bond as a phosphorothioate bond) were used at 200 nM; • the antisense oligonucleotides containing phosphorothioate DNA monomers, the RNA antigene oligonucleotides (agRNA) and the oligonucleotides containing DNA monomers and LNA monomers were used at 10 μM; • the morpholino oligonucleotides were used at a concentration of 1 μM, and • the PNA oligonucleotides were administered at a concentration of 1 μM. The cells were treated with the oligonucleotides, adding FBS up to 4% 6 hours after administration of the same. After 24 hours the total RNA was extracted from each well and purified using the RNeasy Mini Kit (QIAGEN). Assays were performed on 8 cell lines obtained from 5 different human tumours which are correlated with MYCN expression, i.e.: • as a neuroblastoma model use was made of the cell lines Kelly, IMR-32 (where the MYCN gene is amplified and superexpressed) and SKNBE2c and LAN1 (where the MYCN gene is amplified and superexpressed and the p53 gene is mutated); • as a rabdomiosarcoma model use was made of the cell line RH30, where the MYCN gene is amplified and superexpressed; • as a Wilms' tumour model use was made of the cell line WiT49, where the MYCN gene is amplified and superexpressed; • as a retinoblastoma model use was made of the cell line Y79, where the MYCN gene is amplified and superexpressed; and • as a model of small cell lung cancer use was made of the cell line H69 where the MYCN gene is amplified and superexpressed. As a control, use was made of the same cell lines as listed above treated with sterile water instead of oligonucleotides. Each RNA sample was quantified (in duplicate) using a NanoDrop ND-1000 spectrophotometer (NanoDrop Technologies). The first strand of cDNA was produced using the cDNA Synthesis Kit for RT-PCR (Roche). For the cDNA synthesis reaction a total of 1 μg of RNA was used. For the real-time PCR, 10 ng of cDNA in a final volume of 20 μl was used with SYBR Green Master Mix 2× (Applied Biosystems) (3 identical experiments were conducted in triplicate). Two housekeeping genes were used as positive controls: GAPDH and beta-actin (ACTB). The conditions of the QT-PCR reaction were: 10 min at 95° C., 20 sec at 95° C., and 30 sec at 60° C., for 50 cycles. The PNAs having SEQ ID NO: 1-12 were also tested on different cell lines which overexpress MYCN (Kelly, SKNBE2c, RH30, […] 1 and H69). The results are shown in Table 6 and confirm the selectivity and specificity of the inhibition effect of the PNAs on the product of protein translation of the MYCN gene. Chimeric oligonucleotides comprising DNA monomers and LNA monomers and having the MYCN gene as their target were tested in vitro on alveolar rabdomyosarcoma cells (RH30). […]

[2] = tested on: Kelly cells; test: Cellular proliferation assay (ATP-Lite), Kelly cells; conditions: for Cell Prolif (%) 1 μM 72 h: PNA 1 μM; for Cell Prolif. (%) 5 μM 72 h: PNA 5 μM; for Cell Prolif. (%) 10 μM 72 h: PNA 10 μM; for Cell Prolif (%) 2,5 μM 72 h: PNA 2,5 μM; for Cell Prolif. (%): Table 1, treated vs untreated control cells; for Kelly % cell prol.: Table 6
Procedure, shortened: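 Kelly cells seeded at 5×10^3/well in OPTI-MEM with 4% FBS and 2 mM L-glutamine, in triplicate. PNA oligonucleotides at 1, 2.5, 5 or 10 μM. Viability by ATP-Lite luminescence at 48, 72, 96 and 168 h, as ratio to untreated controls.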

[3] = tested on: WiT49; test: Cellular proliferation assay (ATP-Lite), WiT49 cells; conditions: Table 6
Protocol: For the purpose of assessing the gene modulation ability of the oligonucleotides of the present invention, the effect of their administration on cell viability was determined. For this purpose 5×10^3 cells per well were seeded into 96-well cell culture plates (experiments conducted in triplicate) with 100 μl of OPTI-MEM (GIBCO BRL) medium containing 4% FBS and 2 mM of L-glutammine. The PNA oligonucleotides were administered at different concentrations (1 μM-2.5 μM-5 μM-10 μM) in order to observe a dose-effect relationship. The viability of the treated cells was determined at 48, 72, 96 and 168 hours after treatment. Cell viability was assessed by means of an ATP-Lite assay (Luminescence ATP Detection Assay System, PerkinElmer) and is reported as the ratio between the average signal of the treated wells compared to the average value of the wells of untreated control cells. The cells were processed following the instructions provided with the kit. The assays were performed on the same cell lines used to determine the levels of the MYCN gene messenger and listed in the paragraph: Treatments with Oligonucleotides-QT-PCR. The PNAs having SEQ ID NO: 1-12 were also tested on different cell lines which overexpress MYCN (Kelly, SKNBE2c, RH30, […] 1 and H69). The results are shown in Table 6 and confirm the selectivity and specificity of the inhibition effect of the PNAs on the product of protein translation of the MYCN gene.

Substance | RH30 % mRNA [1] | Cell Prolif (%) 1 μM 72 h [2] | Cell Prolif. (%) 5 μM 72 h [2] | Cell Prolif. (%) 10 μM 72 h [2] | Cell Prolif (%) 2,5 μM 72 h [2] | Cell Prolif. (%) [2] | Kelly % cell prol. [2] | WiT49 % cell prol. [3] | (Kelly) Cell Prolif. % ([2]; Table 7, SEQ ID NO: 5 and guanine-group mutants)
SEQ ID NO: 1: PNA ATGCCGGGCATGATCT against MYCN; subject of patent EP 1618195, control sequence used for comparison (all peptide nucleic acid (PNA)) [reference compound] | 39% | 89% | 50% | 24% | 66% | 70% | 66% | 74% | –
SEQ ID NO: 2: PNA antigene oligonucleotide GGGTGGATGCGGGGGG directed against MYCN (PNA backbone, chemistry not fully specified) | 74% | 74% | 12% | 2% | 32% | 32% | 32% | 54% | –
SEQ ID NO: 3: PNA antigene oligonucleotide GATGCGGGGGGCTCCT directed against MYCN (PNA backbone, chemistry not fully specified) | 65% | 78% | 19% | 3% | 41% | 41% | 41% | 57% | –
SEQ ID NO: 4: PNA antigene oligonucleotide GTCGGCGGGAGGTAAG directed against MYCN (PNA backbone, chemistry not fully specified) | 57% | 78% | 21% | 3% | 48% | 48% | 48% | 60% | –
SEQ ID NO: 5: PNA antigene oligonucleotide GCTGGGTGGATGCGGG directed against MYCN (PNA backbone, chemistry not fully specified) | 56% | 79% | 27% | 5% | 53% | 53% | 53% | 63% | 53%
SEQ ID NO: 6: PNA antigene oligonucleotide TGGACGCGCTGGGTGG directed against MYCN (PNA backbone, chemistry not fully specified) | 56% | 82% | 35% | 13% | 59% | 54% | 54% | 65% | –
SEQ ID NO: 7: PNA antigene oligonucleotide CGCGCTGGGTGGATGC directed against MYCN (all peptide nucleic acid (PNA)) | 55% | 80% | 31% | 8% | 54% | 57% | 57% | 60% | –
SEQ ID NO: 8: PNA antigene oligonucleotide GTCTGGACGCGCTGGG directed against MYCN (all peptide nucleic acid (PNA)) | 58% | 80% | 32% | 11% | 57% | 59% | 59% | 62% | –
SEQ ID NO: 9: PNA antigene oligonucleotide CCCTGCAGTCGGCGGG directed against MYCN (all peptide nucleic acid (PNA)) | 50% | 86% | 42% | 20% | 64% | 64% | 60% | 68% | –
SEQ ID NO: 10: PNA antigene oligonucleotide CGGCCGCGGGCCGCCA directed against MYCN (PNA backbone, chemistry not fully specified) | 29% | – | – | – | – | 65% | 64% | 70% | –
SEQ ID NO: 11: PNA antigene oligonucleotide GGGAACTGTGTTGGAG directed against MYCN (PNA backbone, chemistry not fully specified) | 31% | – | – | – | – | 68% | 64% | 72% | –
SEQ ID NO: 12: PNA antigene oligonucleotide TGTCTGGACGCGCTGG directed against MYCN (all peptide nucleic acid (PNA)) | 32% | 84% | 40% | 16% | 60% | 69% | 65% | 73% | –
